Test results from ChEMBL document CHEMBL3580593, “Parthenolide prodrug LC-1 slows growth of intracranial glioma” (Bioorg Med Chem Lett, 2015).
Activity calls are given as the source filed them. The rule behind the calls is not given here.

Assays:
[1] = test system: Nucleic Acid; experiment: Ratio of drug level in brain to plasma in CD1 mouse assessed as elimination product parthenolide at 100 mg/kg, po after 4 hrs by LC-MS/MS analysis; assay type: ADME, organism-based
[2] = test system: Plasma; experiment: Drug uptake in CD1 mouse plasma assessed as elimination product parthenolide at 100 mg/kg, po after 4 hrs by LC-MS/MS analysis; assay type: ADME, organism-based; details: in vivo
[3] = test system: Brain; experiment: Drug uptake in CD1 mouse perfused brain assessed as elimination product parthenolide at 100 mg/kg, po after 4 hrs by LC-MS/MS analysis; assay type: ADME, organism-based; details: in vivo
[4] = Ratio of drug level in brain to plasma in CD1 mouse at 100 mg/kg, po after 4 hrs by LC-MS/MS analysis; assay type: ADME, organism-based; details: read-out: BPR
[5] = test system: GL261; experiment: Antitumor activity in mouse GL261-GFP-Luc cells allografted in C57BL/6J mouse assessed as delay in tumor growth at 100 mg/kg, po relative to control; assay type: functional, organism-based
[6] = Half life in mouse serum; assay type: ADME, cell-free
[7] = Drug uptake in CD1 mouse perfused brain at 100 mg/kg, po after 4 hrs by LC-MS/MS analysis; assay type: ADME, organism-based; details: read-out: Drug uptake
[8] = Drug uptake in CD1 mouse perfused brain at 100 mg/kg, po after 1 hr by LC-MS/MS analysis; assay type: ADME, organism-based; details: read-out: Drug uptake
[9] = test system: Mus musculus; experiment: Toxicity in C57BL/6 mouse assessed as platelet count at 100 mg/kg, po formulated in HP-beta CD; assay type: organism-based; details: in vivo
[10] = test system: Brain; experiment: Drug uptake in CD1 mouse perfused brain assessed as elimination product parthenolide at 100 mg/kg, po after 1 hr by LC-MS/MS analysis; assay type: ADME, organism-based; details: in vivo
[11] = Drug uptake in CD1 mouse plasma at 100 mg/kg, po after 4 hrs by LC-MS/MS analysis; assay type: ADME, organism-based
[12] = test system: Mus musculus; experiment: Toxicity in C57BL/6 mouse assessed as hemoglobin level at 100 mg/kg, po formulated in HP-beta CD; assay type: organism-based; details: in vivo
[13] = test system: U-87 MG; experiment: Cytotoxicity against human U87MG cells assessed as cell viability after 48 hrs by Alamar Blue assay; assay type: functional, cell-based, U-87MG ATCC
[14] = test system: Mus musculus; experiment: Toxicity in C57BL/6 mouse assessed as RBC count at 100 mg/kg, po formulated in HP-beta CD; assay type: organism-based; details: in vivo
[15] = Cytotoxicity against […] GL261-GFP-Luc cells assessed as cell viability after 48 hrs by Alamar Blue assay; assay type: functional, cell-based; details: Mus musculus, GL261, 48 h
[16] = Ratio of drug level in brain to plasma in Wistar rat at 100 mg/kg, po after 30 mins by UPLC-MS/MS analysis; assay type: ADME, organism-based; details: read-out: BPR
[17] = test system: Plasma; experiment: Drug uptake in CD1 mouse plasma assessed as elimination product parthenolide at 100 mg/kg, po after 1 hr by LC-MS/MS analysis; assay type: ADME, organism-based; details: in vivo
[18] = test system: GL261; experiment: Antitumor activity in mouse GL261-GFP-Luc cells allografted in C57BL/6J mouse assessed as increase in mouse survival time at 100 mg/kg, po relative to control; assay type: functional, organism-based
[19] = test system: Mus musculus; experiment: Toxicity in C57BL/6 mouse assessed as WBC count at 100 mg/kg, po formulated in HP-beta CD; assay type: organism-based; details: in vivo
[20] = Drug uptake in CD1 mouse plasma at 100 mg/kg, po after 1 hr by LC-MS/MS analysis; assay type: ADME, organism-based
[21] = Ratio of drug level in brain to plasma in Wistar rat at 100 mg/kg, po after 3 hrs by UPLC-MS/MS analysis; assay type: ADME, organism-based; details: read-out: BPR
[22] = Cytotoxicity against human GBM6 cells assessed as cell viability after 48 hrs by Alamar Blue assay; assay type: functional, cell-based; details: GBM6, 48 h
[23] = Ratio of drug level in brain to plasma in CD1 mouse at 100 mg/kg, po after 1 hr by LC-MS/MS analysis; assay type: ADME, organism-based; details: read-out: BPR

Q: Which BPR [1] does the source give for `C/C1=C\CC[C@@]2(C)O[C@H]2[C@H]2OC(=O)[C@@H](CN(C)C)[C@@H]2CC1` here?
A: Its BPR is 0.5.

Q: And the Cp [2]?
A: The Cp was 0.211 µg/mL.

Q: What about the Drug uptake [3] of the same compound?
A: The Drug uptake was 113 ng/g.

Q: And the Kp at 4 h [4]?
A: The Kp at 4 h was 3.

Q: What about the Activity [5] of the same compound?
A: The Activity was “Active”.

Q: And the half-life [6]?
A: The half-life was 37.8 min.

Q: And the concentration at 4 h [7]?
A: The concentration at 4 h was 342 ng/g.

Q: What about the concentration at 1 h [8] of the same compound?
A: The concentration at 1 h was 6250 ng/g.

Q: And the Activity [9]?
A: Its Activity is “Non-toxic”.

Q: What about the Drug uptake [10] of the same compound?
A: Its Drug uptake is 2402 ng/g.

Q: What about the concentration at 4 h [11] of the same compound?
A: Its concentration at 4 h is 0.115 µg/mL.

Q: And the Activity [12]?
A: Its Activity is “Non-toxic”.

Q: And the IC50 [13]?
A: The IC50 was 8.8 µM.

Q: And the Activity [14]?
A: The Activity was “Non-toxic”.

Q: What about the IC50 [15] of the same compound?
A: Its IC50 is 6.9 µM.

Q: And the Kp at 0.5 h [16]?
A: Its Kp at 0.5 h is 1.84.

Q: And the Cp [17]?
A: The Cp was 2.142 µg/mL.

Q: And the Activity [18]?
A: Its Activity is “Active”.

Q: What about the Activity [19] of the same compound?
A: The Activity was “Non-toxic”.

Q: And the concentration at 1 h [20]?
A: Its concentration at 1 h is 2.96 µg/mL.

Q: And the Kp at 3 h [21]?
A: The Kp at 3 h was 1.91.

Q: What about the IC50 [22] of the same compound?
A: The IC50 was 3.5 µM.

Q: What about the Kp at 1 h [23] of the same compound?
A: The Kp at 1 h was 2.1.

Q: What does the source list for `C=C1C(=O)O[C@@H]2C3O[C@]3(C)CC/C=C(\C)CC[C@@H]12` (stereo partly specified)?
A: IC50 [13]: 8.8 µM; IC50 [15]: 7.6 µM; IC50 [22]: 3.4 µM
